Source: PMC12028158, “Synthesis and In Vitro Evaluation of the Anticancer Effect of Novel Phosphonium Vindoline Derivatives” (International Journal of Molecular Sciences, 2025)

What was measured:
Type in all cases: cell-based
HL-60(TB) = experiment: NCI60 five-dose screen; details: Homo sapiens, HL-60, HL-60(TB), Leukemia; read-out: GI50
K-562 [1] = experiment: NCI60 five-dose screen; details: Homo sapiens, K562; K-562, Leukemia; read-out: GI50
A549/ATCC = experiment: NCI60 five-dose screen; details: Homo sapiens; A549/ATCC, Non-small Cell Lung Cancer; read-out: GI50
EKVX [2] = experiment: NCI60 five-dose screen; details: Homo sapiens, Non-small Cell Lung Cancer, read-out: GI50
HOP-62 = experiment: NCI60 five-dose screen; details: Homo sapiens; HOP-62, Non-small Cell Lung Cancer; read-out: GI50
HOP-92 [3] = experiment: NCI60 five-dose screen; details: Homo sapiens; HOP-92, Non-small Cell Lung Cancer; read-out: GI50
NCI-H460 = experiment: NCI60 five-dose screen; details: Homo sapiens; NCI-H460, Non-small Cell Lung Cancer; read-out: GI50
COLO 205 = experiment: NCI60 five-dose screen; details: Homo sapiens, COLO 205, COLO 205, Colon Cancer; read-out: GI50
HT29 [4] = experiment: NCI60 five-dose screen; details: Homo sapiens, HT-29; HT29, Colon Cancer; read-out: GI50
SF-295 = experiment: NCI60 five-dose screen; details: Homo sapiens; SF-295, CNS Cancer; read-out: GI50
U251 [5] = experiment: NCI60 five-dose screen; details: Homo sapiens, U-251, U251, CNS Cancer; read-out: GI50
MDA-MB-435 = experiment: NCI60 five-dose screen; details: Homo sapiens; MDA-MB-435, Melanoma; read-out: GI50
UACC-62 [6] = experiment: NCI60 five-dose screen; details: Homo sapiens; UACC-62, Melanoma; read-out: GI50
OVCAR-3 = experiment: NCI60 five-dose screen; details: Homo sapiens; OVCAR-3, Ovarian Cancer; read-out: GI50
OVCAR-4 = experiment: NCI60 five-dose screen; details: Homo sapiens; OVCAR-4, Ovarian Cancer; read-out: GI50
NCI/ADR-RES = experiment: NCI60 five-dose screen; details: Homo sapiens, Ovarian Cancer, read-out: GI50
SK-OV-3 [7] = experiment: NCI60 five-dose screen; details: Homo sapiens; SK-OV-3, Ovarian Cancer; read-out: GI50
A498 [8] = experiment: NCI60 five-dose screen; details: Homo sapiens; A498, Renal Cancer; read-out: GI50
TK-10 = experiment: NCI60 five-dose screen; details: Homo sapiens; TK-10, Renal Cancer; read-out: GI50
PC-3 [9] = experiment: NCI60 five-dose screen; details: Homo sapiens; PC-3, Prostate Cancer; read-out: GI50
BT-549 = experiment: NCI60 five-dose screen; details: Homo sapiens; BT-549, Breast Cancer; read-out: GI50
Renal Cancer panel = experiment: NCI60 five-dose screen, panel mean; details: Homo sapiens; mean over Renal Cancer panel; read-out: GI50 Mean
K-562 [10] = experiment: NCI60 one-dose screen; details: Homo sapiens, K562; K-562, 10 μM, one-dose; read-out: Growth percent
MOLT-4 = experiment: NCI60 one-dose screen; details: Homo sapiens; MOLT-4, 10 μM, one-dose; read-out: Growth percent
RPMI-8226 = experiment: NCI60 one-dose screen; details: Homo sapiens; RPMI-8226, 10 μM, one-dose; read-out: Growth percent
SR = experiment: NCI60 one-dose screen; details: Homo sapiens, 10 μM, one-dose, read-out: Growth percent
EKVX [11] = experiment: NCI60 one-dose screen; details: Homo sapiens, 10 μM, one-dose, read-out: Growth percent
HOP-92 [12] = experiment: NCI60 one-dose screen; details: Homo sapiens; HOP-92, 10 μM, one-dose; read-out: Growth percent
NCI-H226 = experiment: NCI60 one-dose screen; details: Homo sapiens; NCI-H226, 10 μM, one-dose; read-out: Growth percent
HT29 [13] = experiment: NCI60 one-dose screen; details: Homo sapiens, HT-29; HT29, 10 μM, one-dose; read-out: Growth percent
KM12 = experiment: NCI60 one-dose screen; details: Homo sapiens; KM12, 10 μM, one-dose; read-out: Growth percent
SF-268 = experiment: NCI60 one-dose screen; details: Homo sapiens; SF-268, 10 μM, one-dose; read-out: Growth percent
SF-539 = experiment: NCI60 one-dose screen; details: Homo sapiens; SF-539, 10 μM, one-dose; read-out: Growth percent
U251 [14] = experiment: NCI60 one-dose screen; details: Homo sapiens, U-251; U251, 10 μM, one-dose; read-out: Growth percent
MALME-3M = experiment: NCI60 one-dose screen; details: Homo sapiens; MALME-3M, 10 μM, one-dose; read-out: Growth percent
SK-MEL-2 = experiment: NCI60 one-dose screen; details: Homo sapiens; SK-MEL-2, 10 μM, one-dose; read-out: Growth percent
SK-MEL-28 = experiment: NCI60 one-dose screen; details: Homo sapiens; SK-MEL-28, 10 μM, one-dose; read-out: Growth percent
UACC-62 [15] = experiment: NCI60 one-dose screen; details: Homo sapiens; UACC-62, 10 μM, one-dose; read-out: Growth percent
OVCAR-8 = experiment: NCI60 one-dose screen; details: Homo sapiens; OVCAR-8, 10 μM, one-dose; read-out: Growth percent
SK-OV-3 [16] = experiment: NCI60 one-dose screen; details: Homo sapiens; SK-OV-3, 10 μM, one-dose; read-out: Growth percent
786-0 = experiment: NCI60 one-dose screen; details: Homo sapiens; 786-0, 10 μM, one-dose; read-out: Growth percent
A498 [17] = experiment: NCI60 one-dose screen; details: Homo sapiens; A498, 10 μM, one-dose; read-out: Growth percent
ACHN = experiment: NCI60 one-dose screen; details: Homo sapiens, 10 μM, one-dose, read-out: Growth percent
SN12C = experiment: NCI60 one-dose screen; details: Homo sapiens, 10 μM, one-dose, read-out: Growth percent
PC-3 [18] = experiment: NCI60 one-dose screen; details: Homo sapiens; PC-3, 10 μM, one-dose; read-out: Growth percent
DU-145 = experiment: NCI60 one-dose screen; details: Homo sapiens; DU-145, 10 μM, one-dose; read-out: Growth percent
HS 578T = experiment: NCI60 one-dose screen; details: Homo sapiens; HS 578T, 10 μM, one-dose; read-out: Growth percent

CCC12C=CCN3CCC4(c5ccc(OC)cc5N(C)C4C(O)(C(=O)OC)C1OC(=O)c1ccc(C[P+](c4ccccc4)(c4ccccc4)c4ccccc4)cc1)C32 (centres unmarked) [compound 12]
GI50 (HL-60(TB)): 297 nM | GI50 (K-562 [1]): 448 nM | GI50 (A549/ATCC): 2090 nM | GI50 (EKVX [2]): 2030 nM | GI50 (HOP-62): 2670 nM | GI50 (HOP-92 [3]): 404 nM | GI50 (NCI-H460): 1660 nM | GI50 (COLO 205): 313 nM | GI50 (HT29 [4]): 541 nM | GI50 (SF-295): 2920 nM | GI50 (U251 [5]): 644 nM | GI50 (MDA-MB-435): 483 nM | GI50 (UACC-62 [6]): 1030 nM | GI50 (OVCAR-3): 704 nM | GI50 (OVCAR-4): 1050 nM | GI50 (NCI/ADR-RES): > 100000 nM | GI50 (SK-OV-3 [7]): 2700 nM | GI50 (A498 [8]): 16400 nM | GI50 (TK-10): 2840 nM | GI50 (PC-3 [9]): 657 nM | GI50 (BT-549): 538 nM | GI50 (Renal Cancer panel): 8300 nM | activity at 10 µM (K-562 [10]): -54.9% | activity at 10 µM (MOLT-4): -53% | activity at 10 µM (RPMI-8226): -50.8% | activity at 10 µM (SR): -58.3% | activity at 10 µM (EKVX [11]): 28.7% | activity at 10 µM (HOP-92 [12]): -73.4% | activity at 10 µM (NCI-H226): -23.1% | activity at 10 µM (HT29 [13]): -39.4% | activity at 10 µM (KM12): -65.8% | activity at 10 µM (SF-268): -26.1% | activity at 10 µM (SF-539): -90.6% | activity at 10 µM (U251 [14]): -72.6% | activity at 10 µM (MALME-3M): -95.5% | activity at 10 µM (SK-MEL-2): -77.8% | activity at 10 µM (SK-MEL-28): -92.4% | activity at 10 µM (UACC-62 [15]): -86.9% | activity at 10 µM (OVCAR-8): -18.5% | activity at 10 µM (SK-OV-3 [16]): -13.2% | activity at 10 µM (786-0): -47.8% | activity at 10 µM (A498 [17]): 70.2% | activity at 10 µM (ACHN): 73.7% | activity at 10 µM (SN12C): -46.5% | activity at 10 µM (PC-3 [18]): -21.9% | activity at 10 µM (DU-145): 16.9% | activity at 10 µM (HS 578T): -36.6%
